Measurements taken from patent US20260325465A1, “SHP-1 INHIBITORS FOR TREATING CANCER” (MDX MANAGEMENT LLC, priority 2022, published 2026).

Key:
[1] = tested on: solid tumors; assay: Intermittent period after TPI-1 combined therapy in tumors; format: in vivo, murine; conditions: TPI-1 combined with TLR agonists or RT
From the text: Furthermore, these analyses of the TME immune landscape changes following TPI-1 combined therapies informed our design of the pulse-intermittent SHP-1 inhibition strategy for metastatic solid tumors. […] Along with macrophage reduction, tumor-associated SHP-1 activities also dwindled, a change that ousted the necessity of continuous TPI-1 application. This “intermittent” period lasted 3-6 days, a length dependent on TPI-1 and TLR agonists/RT dosages, as well as tumor type and stage prior to treatment. […] Consistent with these changes, the tumors after the intermittent period were reverted to growth, unless another cycle of TPI-1 combined therapy was applied, which were again effectively suppressing tumors.

[2] = tested on: macrophages; assay: Macrophage cytokine production under immunosuppressive or proinflammatory stimulation with cancer cell ligation; format: cell-based
From the text: FIGS. 6A-6D depict that the inhibition of SHP-1 promotes anti-tumor effects or pro-tumor effects under different circumstances. FIG. 6A depicts that intratumoral macrophages upregulate expression of iRs (Pir-B, Siglec E, F and G, and SIRPα) along with tumor progression to late-stage large sizes. KPC pancreatic tumors of small sizes (<150 mm^3) and those grown to larger sizes (>800 mm^3) were dissociated to single cells, followed by flow cytometry analyses for cell surface protein expression on macrophages (gated F4/80+). FIG. 6B depicts that the inhibition of SHP-1 alone promotes TME immunosuppression. Excised MC38 solid tumor cubes were treated with SHP-1 inhibitor TPI-1 (100 nM) or vehicle (DMSO) in a cell culture setting. After 24 h, tumor secreting cytokines into the culture medium were assayed by ELISA.
The SHP-1 activity in non-therapeutic solid tumors is low (see FIGS. 7A-7D), and this low activity inhibits immunosuppressive receptor signaling. […] In parallel experiments, the same SHP-1 inhibitors augmented macrophage responses to the M1 stimuli IFNγ and LPS and enhanced proinflammatory cytokine production.

[3] = tested on: MC38 colorectal carcinoma; assay: Study-2: multi-lesion MC38 colorectal carcinoma, efficacy; format: in vivo, mice; conditions: intermittent iSHP-1 with αTLR, or αTLR and αPD-L1
Experimental: FIGS. 12A-12D depict that pulse-intermittent inhibition of SHP-1 (iSHP-1) combined with TLR agonists (αTLR) and/or anti-PD-L1 checkpoint inhibitor effectively treat multi-lesion MC38 colorectal carcinoma. FIG. 12A depicts the treatment scheme. Mice with bilateral MC38 tumors (s.c.) were treated for two days with TPI-1 and various combinations via i.p. or s.c. A 5-day intermittent period was given before the 2nd cycle of treatments to mice that had residue tumors. FIGS. 12B and 12C depict tumor control efficacies measured by tumor volume changes (FIG. 12B) and TME reprogramming, indicating increases in tumor killing immune populations while reduction of immunosuppression. FIG. 12D depicts acute adverse toxicity, measured by body weight, proteinuria, serum ALT level and splenomegaly.

[4] = molecular target: T1, SHP-1 (Mus musculus, UniProt P29351); assay: Pulse inhibition of SHP-1 in macrophages, SHP-1 activity (pNpp) over time; format: cell-based, murine
T1 construct: lysate pNpp phosphatase activity after TPI-1 pulse
T1 sequence (P29351 whole entry): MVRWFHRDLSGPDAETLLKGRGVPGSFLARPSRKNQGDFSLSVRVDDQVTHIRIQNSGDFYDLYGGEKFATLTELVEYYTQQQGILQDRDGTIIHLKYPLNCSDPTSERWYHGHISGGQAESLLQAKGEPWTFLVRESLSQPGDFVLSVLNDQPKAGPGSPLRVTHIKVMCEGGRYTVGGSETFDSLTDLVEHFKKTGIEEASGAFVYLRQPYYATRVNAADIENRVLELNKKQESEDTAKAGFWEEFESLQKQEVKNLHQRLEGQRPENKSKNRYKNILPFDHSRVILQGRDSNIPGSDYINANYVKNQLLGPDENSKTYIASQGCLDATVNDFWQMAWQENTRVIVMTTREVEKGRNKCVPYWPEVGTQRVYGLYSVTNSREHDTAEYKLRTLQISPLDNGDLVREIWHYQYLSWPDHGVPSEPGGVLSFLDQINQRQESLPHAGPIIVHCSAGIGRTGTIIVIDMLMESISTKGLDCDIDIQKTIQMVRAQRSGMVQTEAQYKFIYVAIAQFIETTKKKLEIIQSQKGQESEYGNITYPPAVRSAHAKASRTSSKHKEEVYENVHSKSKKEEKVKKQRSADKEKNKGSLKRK
Experimental: FIGS. 4A and 4B depict that pulse inhibition of SHP-1 transiently enhances proinflammatory signal transduction in macrophages. FIG. 4A: murine macrophages (bone marrow derived macrophages, or “BMDM”) were treated with TPI-1 for 15 min followed by wash to complete removal of TPI-1. At different time points after the TPI-1 treatment, macrophages were stimulated with IFNγ/LPS in the presence of alive cancer cells (1:1 ratio to BMDM) for 20 min prior to cell lysis and assaying SHP-1 activity using pNpp and WB detecting total and phosphorylated STAT1 and Erk1/2. FIG. 4B: the same setting as in FIG. 4A, except that after TPI-1 treatment, TPI-1 in medium was partially removed (50%) or without removal, followed by macrophage stimulation with IFNγ/LPS at different time points.

[5] = Study-1: continuous vs intermittent iSHP-1 with TLR agonists, adverse toxicity; format: in vivo, mice; conditions: i.p.
Experimental: FIGS. 11A-11E depict the impact of continuous or intermittent iShp-1 treatment on the efficacy and adverse toxicity. FIG. 11A depicts the study design. Mice with KPC pancreatic cancer were either continuously treated with TPI-1 (1× per day) or in an intermittent fashion with gapping days between two treatments (intermittent). Three doses, 1, 3 and 10 mg/kg (i.p.), were tested and TLR agonists (CpG plus PolyI:C, each 10 μg, i.p., 1× every 3 day) was given to kickstart inflammatory response. […] Tumor imaging (FIG. 11B) and volume change records (FIG. 11C) indicate similar efficacies of iShp-1 with continuous or intermittent schemes.
Tumor model: Single engraftment of KPC pancreatic adenocarcinoma
Treatments & dosing strategies: i) iSHP-1—TPI-1, 1, 3, and 10 mg/kg; i.p. either 1× per day (continuous), or following an intermittent schedule depicted in FIG. 11. ii) TLR agonists (αTLR)—CpG, PolyI:C, each 10 μg; i.p. every 3 days

[6] = tested on: LLC lung cancer; assay: Study-3: iSHP-1 with RT and αPD-L1, LLC lung cancer; format: in vivo, mice; conditions: TPI-1 3 or 5 mg/kg i.p. every 3 days, right flank RT 8Gy-4Gy-2Gy, αPD-L1 100 μg
Experimental: FIGS. 13A-13E depict pulse-intermittent SHP-1 inhibition (iSHP-1) combination with RT and αPD-L1 treating pancreatic cancer and lung cancer. FIG. 13A depicts experimental schemes. […] Concomitantly, the tumor at the right flank was treated with 8Gy X-ray radiation (RT). After two days of intermittent period, mice on day 4 were treated with the 2nd cycle TPI-1 (i.p.) of the same dose while RT reduced to 4Gy applied to the right flank tumor. The 3rd cycle (day 7) iSHP-1 combination with RT reduced to 2Gy. Anti-PD-L1 Ab (100 μg, i.p.) was given a day following TPI-1 plus RT. FIG. 13B depicts luminescent image tracing KPC-luc and LLC-luc tumor changes post treatment. FIG. 13C depicts record of tumor volume changes and animal survival up to post-treatment 45 days.
Modalities & Dosing Strategy: i) iSHP-1—TPI-1, 3 or 5 mg/kg, i.p., 1× every 3 days. ii) Tumor focal RT: 8Gy-4Gy-2Gy, given to right flank simultaneously with iSHP-1. iii) αPD-L1: 100 μg, i.p., given a day after iSHP-1 plus RT

Compound: O=C1C=CC(=O)C(c2cc(Cl)ccc2Cl)=C1 [TPI-1]
- length of intermittent period with reduced macrophages and tumor growth restraint [1]: 3 to 6 days
- macrophage production of IL-12 and TNFα ([2]; IFNγ and LPS): dose-dependently augmented macrophage proinflammatory response with increased IL-12 and TNFα
- macrophage production of IL-10 and TGFβ ([2]; IL-4/13 or IL-10 stimulation): dose-dependently augmented
- tumor regression, combination [3]: effectively regressed multiple lesions of MC38 colorectal cancer
- duration of pulse SHP-1 inhibition before activity starts to recover ([4]; 15 min treatment, then wash): 5 to 8 h
- time for SHP-1 activity to recover to over 50% ([4]; 15 min treatment, then wash): 12 to 16 h
- SHP-1 total protein ([4]; after pulse inhibition): did not appear to vary
- SHP-1 inhibition (in words) ([4]; immediately after 15 min treatment and wash): strong SHP-1 inhibition
- SHP-1 activity recovered ([4]; in 12-16 h after 15 min treatment and wash): over 50%
- time to recover SHP-1 activity after pulse inhibition ([4]; pulse inhibition in macrophages): 24 h
- SHP-1 inhibition without or with partial inhibitor removal ([4]; without removal or 50% removal): elongated inhibition on the SHP-1 activity
- adverse effects, continuous dosing ([5]; 1× per day): incurred acute anemia, proteinuria, splenomegaly and lung inflammation
- adverse effects, intermittent dosing ([5]; intermittent): did not display or were minor
- tumor elimination incl. distal lesions [6]: effectively eliminating or repressing KPC pancreatic cancer and LLC lung cancer along with distal lesions
